Results reported in patent US20230066011A1, “PYRROLOPYRIMIDINE DERIVATIVE, AND PHARMACEUTICAL COMPOSITION FOR PREVENTING OR TREATING PROTEIN KINASE-RELATED DISEASE COMPRISING SAME AS ACTIVE INGREDIENT” (VORONOI CO., LTD., priority 2019, published 2023).

Key:
[1] = target: T1, human GST-DYRK1A (Homo sapiens, UniProt Q13627); assay: GST-DYRK1A enzyme inhibition, ADP-Glo kinase assay; format: biochemical; conditions: ATP 10 μM, GST-DYRK1A full length, read-out: DYRK1 IC50
T1 construct: purified human GST-DYRK1A (full length, Thermo Scientifics) enzyme; purchased Thermo Scientifics
Outline: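 Full-length human GST-DYRK1A (10 ng) with 10 μM ATP and specific substrate in 40 mM Tris-HCl pH 7.4, 20 mM MgCl2, 0.5 mg/mL BSA, 50 μM DTT, 1 h at 25 °C. ADP formation read by ADP-Glo luminescence relative to solvent control; IC50 from three data sets.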

[2] = target: LRRK2 (G2019S) (Homo sapiens, UniProt Q5S007, G2019S); assay: LRRK2 G2019S enzyme inhibition, ADP-Glo kinase assay; format: biochemical; parameters: purchased SignalChem L10-12GG; conditions: ATP 25 μM
Outline: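 Purified human LRRK2 G2019S (16 ng) with 25 μM ATP and 0.2 μg substrate, 2 h at 25° C. in Tris-HCl pH 7.4, MgCl2, BSA, DTT buffer; compounds at 12 final concentrations, 50 μM down to 0.000001024 μM. ADP-Glo luminescence versus solvent control gave IC50.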

[3] = system: MDA-MB-468 cell line; assay: Inhibition of proliferation of MDA-MB-468 cancer cells (Cell Titer-Glo); format: cell-based; conditions: Homo sapiens, MDA-MB-468, 72 hours
Outline: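 Cells were grown in DMEM or RPMI, seeded at 2,000 cells/well and exposed to 11 threefold dilutions of compound (final 10 to 0.000169 μM) for 72 hours. Viability was read by Cell Titer-Glo luminescence after 10 min at room temperature, and GI50 was calculated from the luminescence data.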

[4] = system: IL-6; assay: Inhibition of LPS-induced IL-6 secretion of THP-1 monocytes (ELISA); format: cell-based, human; conditions: Homo sapiens, THP-1; compound 0.5 μM, LPS 500 ng/mL, 24 hours; read-out: THP1/IL6 (% inhib)
Outline: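 THP-1 monocytes grown 16 h at 37 °C, pretreated 1 h with compound at final 0.5 μM, then stimulated with LPS at final 500 ng/mL for 24 h. IL-6 and TNF-α in culture supernatant measured by ELISA (OD 450 nm).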

Sequence of LRRK2 (G2019S) (Q5S007 970-2527 G2019S limits assumed): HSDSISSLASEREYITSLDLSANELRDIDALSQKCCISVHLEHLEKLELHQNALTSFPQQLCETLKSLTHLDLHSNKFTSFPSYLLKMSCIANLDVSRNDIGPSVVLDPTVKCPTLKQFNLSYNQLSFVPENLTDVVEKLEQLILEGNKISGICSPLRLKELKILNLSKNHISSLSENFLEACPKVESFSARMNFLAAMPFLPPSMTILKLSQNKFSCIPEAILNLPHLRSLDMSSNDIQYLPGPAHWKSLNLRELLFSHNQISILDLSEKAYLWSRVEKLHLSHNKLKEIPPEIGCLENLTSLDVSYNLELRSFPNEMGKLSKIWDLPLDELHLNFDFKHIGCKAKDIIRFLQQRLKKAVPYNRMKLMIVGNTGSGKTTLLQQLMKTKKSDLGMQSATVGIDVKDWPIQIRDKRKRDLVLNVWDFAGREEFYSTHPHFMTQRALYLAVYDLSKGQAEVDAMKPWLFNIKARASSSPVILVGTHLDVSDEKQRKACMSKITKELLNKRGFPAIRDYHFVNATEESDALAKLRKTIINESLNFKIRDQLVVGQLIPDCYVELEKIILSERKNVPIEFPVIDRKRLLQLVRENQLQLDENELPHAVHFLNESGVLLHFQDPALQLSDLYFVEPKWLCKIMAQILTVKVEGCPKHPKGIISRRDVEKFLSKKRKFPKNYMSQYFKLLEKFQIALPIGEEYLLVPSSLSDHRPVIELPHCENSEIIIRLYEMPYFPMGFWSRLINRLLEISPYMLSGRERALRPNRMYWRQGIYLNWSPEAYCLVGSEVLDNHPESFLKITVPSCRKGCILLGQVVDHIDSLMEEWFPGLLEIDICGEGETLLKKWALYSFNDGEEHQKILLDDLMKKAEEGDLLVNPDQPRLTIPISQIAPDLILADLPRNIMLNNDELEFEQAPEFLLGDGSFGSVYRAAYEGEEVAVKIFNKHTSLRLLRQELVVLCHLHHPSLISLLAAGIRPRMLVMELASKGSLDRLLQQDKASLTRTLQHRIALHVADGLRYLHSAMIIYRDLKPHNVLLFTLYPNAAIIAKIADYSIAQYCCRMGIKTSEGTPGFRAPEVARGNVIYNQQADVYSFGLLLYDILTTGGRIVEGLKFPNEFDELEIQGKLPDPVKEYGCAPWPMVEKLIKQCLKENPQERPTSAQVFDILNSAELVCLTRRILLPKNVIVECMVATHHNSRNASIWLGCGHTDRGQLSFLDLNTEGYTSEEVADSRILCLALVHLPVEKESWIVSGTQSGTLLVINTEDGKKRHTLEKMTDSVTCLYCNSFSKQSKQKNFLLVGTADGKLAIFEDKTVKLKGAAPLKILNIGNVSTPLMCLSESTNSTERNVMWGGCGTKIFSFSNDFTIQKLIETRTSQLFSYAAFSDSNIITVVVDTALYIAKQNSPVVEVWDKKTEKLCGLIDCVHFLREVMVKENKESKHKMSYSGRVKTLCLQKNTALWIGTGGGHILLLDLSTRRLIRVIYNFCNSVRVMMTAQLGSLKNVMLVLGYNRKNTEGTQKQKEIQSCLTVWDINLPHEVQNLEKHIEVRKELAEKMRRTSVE

Structure (SMILES)	IC50 [1] [µM]	IC50 [2] [µM]	GI50 [3] [nM]	inhibition at 0.5 µM [4] [%]
CCNc1nc(Nc2ccc(C(=O)N3CCN(C4COC4)CC3)c3c2OCCO3)nc2[nH]cc(C(F)(F)F)c12 [Example 400, (8-((4-(ethylamino)-5-(trifluoromethyl)-7H-pyrrolo[2,3-d]pyrimidin-2-yl)amino)-2,3-dihydrobenzo[b] [1,4]dioxin-5-yl) (4-(oxetan-3-yl)piperazin-1-yl)methanone]	< 0.1	< 0.1	301 to 1000	24.7
CNc1nc(Nc2ccc(S(=O)(=O)N3CCC(N4CCOCC4)CC3)c3c2OCCO3)nc2[nH]cc(C(F)(F)F)c12 [Example 219, N^4-methyl-N^2-(8-((4-morpholinopiperidin-1-yl)sulfonyl)-2,3-dihydrobenzo[b][1,4]dioxin-5-yl)-5-(trifluoromethyl)-7H-pyrrolo[2,3-d]pyrimidine-2,4-diamine]	< 0.1	< 0.1	301 to 1000	10.9
CCNc1nc(Nc2ccc(S(=O)(=O)N3CCC(N4CCOCC4)CC3)c3c2OCCO3)nc2[nH]cc(C(F)(F)F)c12 [Example 430, N^4-ethyl-N^2-(8-((4-morpholino-piperidin-1-yl)sulfonyl)-2,3-dihydro-benzo[b][1,4]dioxin-5-yl)-5-(trifluoromethyl)-7H-pyrrolo[2,3-d]pyrimidine-2,4-diamine]	0.301 to 1	< 0.1	301 to 1000	21
CCNc1nc(Nc2ccc(C(=O)N3CCC(N4C[C@@H]5C[C@H]4CO5)CC3)c3c2OCC3)nc2[nH]cc(C(F)(F)F)c12 [Example 468]	< 0.1	< 0.1	301 to 1000	22.4
C=CCNc1nc(Nc2ccc(S(=O)(=O)N3CCC(N4CCOCC4)CC3)cc2OC)nc2[nH]cc(C#N)c12 [Example 361, 4-(allylamino)-2-((2-methoxy-4-((4-morpholino-piperidin-1-yl)sulfonyl)phenyl)amino)-7H-pyrrolo[2,3-d]pyrimidine-5-carbonitrile]	0.301 to 1	< 0.1	< 50	21.7

Now from value to molecule, other results behind:

IC50 [1] [µM]	IC50 [2] [µM]	GI50 [3] [nM]	Structure (SMILES)	inhibition at 0.5 µM [4] [%]
< 0.1	< 0.1	301 to 1000	CNc1nc(Nc2ccc(C(=O)N3CCC(N4CCOCC4)CC3)c3c2OCC3)nc2[nH]cc(C(F)(F)F)c12 [Example 217, (7-((4-(methylamino)-5-(trifluoromethyl)-7H-pyrrolo[2,3-d]pyrimidin-2-yl)amino)-2,3-dihydrobenzofuran-4-yl)(4-morpholinopiperidin-1-yl)methanone]	23.4
< 0.1	< 0.1	301 to 1000	CCCNc1nc(Nc2ccc(C(=O)N3CCC(N4CCOCC4)CC3)c3c2OCC3)nc2[nH]cc(C(F)(F)F)c12 [Example 446, (4-morpholino-piperidin-1-yl)(7-((4-(propylamino)-5-(trifluoromethyl)-7H-pyrrolo[2,3-d]pyrimidin-2-yl)amino)-2,3-dihydrobenzo-furan-4-yl)methanone]	17.3
< 0.1	< 0.1	301 to 1000	O=C(c1ccc(Nc2nc(NC3CC3)c3c(C(F)(F)F)c[nH]c3n2)c2c1CCO2)N1CCC(N2CCOCC2)CC1 [Example 434, (7-((4-(cyclopropyl-amino)5-(trifluoromethyl)-7H-pyrrolo[2,3-d]pyrimidin-2-yl)amino)-2,3-dihydrobenzo-furan-4-yl)(4-morpho-linopiperidin-1-yl)methanone]	34.1
< 0.1	< 0.1	301 to 1000	COCCNc1nc(Nc2ccc(C(=O)N3CCC(N4CCOCC4)CC3)c3c2OCC3)nc2[nH]cc(C(F)(F)F)c12 [Example 443, (7-((4-((2-methoxyethyl)amino)-5-(trifluoromethyl)-7H-pyrrolo[2,3-d]pyrimidin-2-yl)amino)-2,3-dihydrobenzo-furan-4-yl)(4-morpho-linopiperidin-1-yl)methanone]	4.6
